Assay results published in the supplement of paper PMC10307832.

Legend:
Experiment in all cases: relative viability (nuclei count vs DMSO), 5 days (fraction); higher = more cells survive
TGX 221 + Crizotinib = compound: CC1=CN2C(=O)C=C(N=C2C(=C1)C(C)NC3=CC=CC=C3)N4CCOCC4 [TGX 221] + C[C@@H](Oc1cc(-c2cnn(C3CCNCC3)c2)cnc1N)c1c(Cl)ccc(F)c1Cl [Crizotinib] (partner 1 µM)
How it was run: (§1)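 Lung cancer cell lines, seeded in 1536-well plates, were treated the following day by pin tool with a single drug or with five library-drug doses (not always all listed) in √10 steps on top of a fixed anchor-drug dose. Cells were fixed and nuclei stained in one step after 5 days, and nuclei were counted. Relative viability is the nuclei count for treated wells divided by that for vehicle wells, reported as medians of duplicate plates.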

[1] = compound: O=C(CCCCCCNC(=O)c1cnc(N(c2ccccc2)c2ccccc2)nc1)NO [Ricolinostat] + CCNC(=O)c1noc(-c2cc(C(C)C)c(O)cc2O)c1-c1ccc(CN2CCOCC2)cc1 [Luminespib] (partner 0.01 µM)
How it was run: as §1

[2] = compound: O=C(CCCCCCNC(=O)c1cnc(N(c2ccccc2)c2ccccc2)nc1)NO [Ricolinostat] + Nc1nc2[nH]cc(CCc3ccc(C(=O)N[C@@H](CCC(=O)O)C(=O)O)cc3)c2c(=O)[nH]1 [Pemetrexed] (partner 0.2 µM)
How it was run: as §1

[3] = compound: O=C(CCCCCCNC(=O)c1cnc(N(c2ccccc2)c2ccccc2)nc1)NO [Ricolinostat] + C[C@@H](Oc1cc(-c2cnn(C3CCNCC3)c2)cnc1N)c1c(Cl)ccc(F)c1Cl [Crizotinib] (partner 1 µM)
How it was run: as §1

Cell Line	relative viability (TGX 221 + Crizotinib; first compound 0.08 µM)	relative viability (TGX 221 + Crizotinib; first compound 0.253 µM)	relative viability (TGX 221 + Crizotinib; first compound 0.8 µM)	relative viability (TGX 221 + Crizotinib; first compound 2.53 µM)	relative viability (TGX 221 + Crizotinib; first compound 8 µM)	relative viability ([1]; first compound 0.08 µM)	relative viability ([1]; first compound 0.253 µM)	relative viability ([1]; first compound 0.8 µM)	relative viability ([1]; first compound 2.53 µM)	relative viability ([2]; first compound 0.08 µM)	relative viability ([2]; first compound 0.253 µM)	relative viability ([2]; first compound 0.8 µM)	relative viability ([2]; first compound 2.53 µM)	relative viability ([3]; first compound 0.253 µM)	relative viability ([3]; first compound 0.8 µM)	relative viability ([3]; first compound 2.53 µM)	relative viability ([3]; first compound 0.08 µM)
NCI-H1355	1.02	1.07	1.01	0.913	0.887	0.645	0.764	0.753	0.712	0.916	1.07	0.95	1.01	1.01	0.995	1.02	
NCI-H2228	0.399	0.288	0.354	0.327	0.384	0.157	0.115	0.167	0.15	0.311	0.31	0.285	0.345	0.475	0.546	0.549	0.408
LXF-289	0.813	0.832	0.808	0.774	0.82	0.579	0.655	0.692	0.672	0.935	0.775	0.895	0.792	0.852	0.804	0.719	0.804
NCI-H2085	0.804	0.878	0.915	0.806	0.505		0.447	0.37	0.357		0.799	0.738	0.758	0.81	0.819	0.848	
NCI-H2342						0.541	0.78	0.835	0.762	0.734	0.785	0.719	0.637				
EMC-BAC-2	0.745	0.706	0.746	0.743	0.569	1.05	1.14	1.12	1.11	0.44	0.414	0.38	0.308	0.698	0.695	0.681	0.697
IA-LM	0.879	0.711	0.903	0.864	0.788									0.763	0.784	0.578	
A549	0.677	0.743	0.773	0.751	0.529									0.714	0.581	0.291	0.757
NCI-H3122	0.278	0.227	0.281	0.294	0.356	0.0722	0.0881	0.105	0.0921	0.18	0.205	0.207	0.198	0.307	0.326	0.336	0.219
LC-2-ad	0.438	0.423	0.475	0.499	0.486	0.8	0.987	0.98	0.869	0.32	0.272	0.28	0.269	0.44	0.445	0.484	
NCI-H1734	0.652	0.643	0.643	0.588	0.537	0.197	0.19	0.185	0.178	0.446	0.414	0.448	0.473	0.792	0.706	0.581	0.561
NCI-H1975	0.985	0.878	0.996	0.935	0.803	0.243	0.227	0.186	0.179	0.329	0.279	0.277	0.269	0.954		0.884	1.01
NCI-H1793							0.15	0.171	0.145	0.603	0.76	0.815	0.811				
NCI-H1650	0.828	0.857	0.875	0.956	0.545	0.184	0.191	0.225	0.17	0.379	0.403	0.337	0.349	0.926	0.714	0.784	1.04
NCI-H1651		0.834	0.865	0.839	0.753	0.712	0.891	0.852	0.914	0.463	0.571	0.55	0.552	0.84	0.88	0.816	0.843
NCI-H1437	0.931	0.908	0.876	0.861	0.819	0.984	1.08	1.12	0.92	0.329	0.32	0.276	0.263	0.931	0.918	0.765	0.825
NCI-H1299	0.933	0.942	0.949	0.96	0.904									0.917	0.974	0.891	0.928
HCC-78	0.385	0.334		0.294	0.274						0.84	0.902	0.88	0.288	0.279	0.25	
SW 900						0.166	0.164	0.183	0.17	0.496	0.488	0.491	0.441				
NCI-H1395							0.792	0.859	0.528		0.801	0.804	0.746				
NCI-H1703	0.797	0.618	0.715	0.31	0.54									1.02	0.891	0.612	0.63
NCI-H522						1.39	1.01	1.28	1.19	0.972	1.03	1.05	0.924				
NCI-H1623						0.481	0.517	0.541	0.523								
Calu-6	0.718	0.698	0.806	0.768	0.693									0.766	0.638	0.51	0.712
EBC-1	0.203	0.183	0.211	0.178	0.183									0.163	0.164	0.224	0.186
HCC-366	0.561	0.524	0.483	0.448	0.398					0.172	0.153	0.202	0.156	0.464	0.428	0.188	0.49
